The source of these data is patent publication US8962608B2, “Cycloalkylnitrile pyrazole carboxamides as janus kinase inhibitors” (Merck Sharp & Dohme Corp., priority 2011, dated 2015).

Assay [1] has as its target JAK1 (recombinant purified GST-tagged catalytic domain) (Homo sapiens (Human), UniProt P23458). Put plainly: biochemical.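 Note: biochemical assay with HTRF read-out.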
Assay [2] concerns the target JAK2 (recombinant purified GST-tagged catalytic domain) (Homo sapiens (Human), UniProt O60674). Put plainly: biochemical.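 Note: biochemical JAK kinase assay with HTRF detection.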

Chain of JAK2 (recombinant purified GST-tagged catalytic domain) (O60674 849-1124): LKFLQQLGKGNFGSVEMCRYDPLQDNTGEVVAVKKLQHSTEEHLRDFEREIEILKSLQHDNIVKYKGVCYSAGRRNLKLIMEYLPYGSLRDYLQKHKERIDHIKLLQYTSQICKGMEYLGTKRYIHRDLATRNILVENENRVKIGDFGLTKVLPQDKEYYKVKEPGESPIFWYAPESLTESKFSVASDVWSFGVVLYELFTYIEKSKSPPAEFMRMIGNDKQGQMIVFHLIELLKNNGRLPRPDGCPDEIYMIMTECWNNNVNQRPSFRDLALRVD
Chain of JAK1 (recombinant purified GST-tagged catalytic domain) (P23458 875-1153): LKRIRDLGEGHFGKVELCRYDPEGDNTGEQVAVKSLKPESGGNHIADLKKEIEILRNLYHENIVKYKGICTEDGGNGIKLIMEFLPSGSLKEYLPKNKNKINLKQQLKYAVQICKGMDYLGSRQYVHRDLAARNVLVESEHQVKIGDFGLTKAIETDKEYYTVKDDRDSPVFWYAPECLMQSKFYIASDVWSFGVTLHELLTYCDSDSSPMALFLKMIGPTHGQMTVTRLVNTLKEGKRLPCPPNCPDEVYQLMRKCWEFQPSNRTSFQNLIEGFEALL

In the case of `N#C[C@H]1C[C@H](N2C[C@@H]3[C@@H](CO)[C@@H]3C2)CC[C@@H]1n1cc(C(N)=O)c(Nc2ccc(C(F)(F)F)cc2)n1` (single isomer, unassigned) [Example 28-15, 1-{(1S,2S,4R or 1R,2R,4S)-2-cyano-4-[(1R,5S,6R or 1S,5R,6S)-6-(hydroxymethyl)-3-azabicyclo[3.1.0]hex-3-yl]cyclohexyl}-3-{[4-(trifluoromethyl)phenyl]amino}-1H-pyrazole-4-carboxamide], the half-inhibitory concentration (IC50) worked out at 0.9 nM in assay [1] and 22 nM in assay [2].

Consider `CS(=O)(=O)CCNC1CC[C@H](n2cc(C(N)=O)c(Nc3ccc(S(=O)(=O)C(F)(F)F)cc3)n2)[C@@H](C#N)C1` (single isomer, unassigned) [Example 28-148, 1-[(1S,2S or 1R,2R)-2-cyano-4-{[2-(methylsulfonyl)eth-yl]amino}cyclohexyl]-3-({4-[(trifluoromethyl)sulfon-yl]phenyl}amino)-1H-pyrazole-4-carboxamide], for which the figures for the IC50 in assay [1] and in assay [2] were 0.35 nM and 4 nM, respectively.

As to `CN(C)[C@H]1CC[C@H](n2cc(C(N)=O)c(Nc3ccc(Cl)c(F)c3)n2)[C@@H](C#N)C1` (single isomer, unassigned) [Example 28-41, 3-[(4-chloro-3-fluorophenyl)amino]-1-[(1S,2S,4S or 1R,2R,4R)-2-cyano-4-(dimethylamino)cyclohexyl]-1H-pyrazole-4-carboxamide], the IC50 came to 2 nM in assay [1] and 58 nM in assay [2].

Take `CC(C)(C(=O)O)c1ccc(Nc2nn([C@@H]3CCCC[C@H]3C#N)cc2C(N)=O)cc1` (single isomer, unassigned) [Example 17-43, 2-[4-({4-carbamoyl-1-[(1R,2R or 1S,2S)-2-cyanocyclohexyl]-1H-pyrazol-3-yl}amino)phenyl]-2-methylpropanoic acid]: the IC50 is 0.12 nM in assay [1] and 7 nM in assay [2].

Consider `N#C[C@H]1CC(NC2CCS(=O)(=O)C2)CC[C@@H]1n1cc(C(N)=O)c(Nc2ccc(S(=O)(=O)C(F)(F)F)cc2)n1` (single isomer, unassigned) [Example 28-153, 1-{(1S,2S or 1R,2R)-2-cyano-4-[(1,1-dioxidotetrahydrothiophen-3-yl)amino]cyclohexyl}-3-({4-[(trifluoromethyl)sulfonyl]phen-yl}amino)-1H-pyrazole-4-carboxamide], for which the half-maximal inhibitory concentration (IC50) in assay [1] is 0.4 nM; in assay [2], 7 nM.

For `N#C[C@H]1CCCCC1n1cc(C(N)=O)c(Nc2ccc(-c3cn[nH]c3)nc2)n1` (mixture of isomers) [Example 21-3, 1-[(1S,2S and 1R,2R)-2-cyanocyclohexyl]-3-{[6-(1H-pyrazol-4-yl)pyridin-3-yl]amino}-1H-pyrazole-4-carboxamide], the half-inhibitory concentration (IC50) in assay [1] came out at 2 nM; in assay [2], 16 nM.

As to `N#C[C@H]1CCCC[C@@H]1n1cc(C(N)=O)c(Nc2ccc(S(=O)(=O)NCc3ccccn3)cc2)n1` (single isomer, unassigned) [Example 17-85, 1-[(1R,2R or 1S,2S)-2-cyanocyclohexyl]-3-({4-[(pyridin-2-ylmethyl)sulfamoyl]phenyl}amino)-1H-pyrazole-4-carboxamide], the IC50 worked out at 0.9 nM in assay [1] and 4 nM in assay [2].

With `CC(C)(O)C1CN([C@H]2CC[C@H](n3cc(C(N)=O)c(Nc4ccc(C(F)(F)F)cc4)n3)[C@@H](C#N)C2)C1` (single isomer, unassigned) [Example 28-28, 1-{(1S,2S,4S or 1R,2R,4R)-2-cyano-4-[3-(1-hydroxy-1-methylethyl)azetidin-1-yl]cyclohexyl}-3-{[4-(trifluoromethyl)phenyl]amino}-1H-pyrazole-4-carboxamide], the IC50 is 3 nM in assay [1] and 77 nM in assay [2].

In the case of `N#C[C@@H]1C[C@H](OCC2CC2)CC[C@H]1n1cc(C(N)=O)c(Nc2ccnc(F)c2)n1` (single isomer, unassigned) [Example 26-2, 1-[(1R,2R,4R or 1S,2S,4S)-2-cyano-4-(cyclopropylmethoxy)cyclohexyl]-3-[(2-fluoropyridin-4-yl)amino]-1H-pyrazole-4-carboxamide], the IC50 amounted to 6 nM in assay [1] and 76 nM in assay [2].

On to `N#C[C@@H]1C[C@@H](NC2CC3(CCCC3)C2)CC[C@H]1n1cc(C(N)=O)c(Nc2ccc(C(F)(F)F)cc2)n1` (single isomer, unassigned) [Example 30-5, 1-[(1R,2R,4S or 1S,2S,4R)-2-cyano-4-(spiro[3.4]oct-2-ylamino)cyclohexyl]-3-{[4-(trifluoromethyl)phenyl]amino}-1H-pyrazole-4-carboxamide], for which the IC50 is 21 nM in assay [1] and 665 nM in assay [2].

For the compound `N#C[C@@H]1C[C@H](C(=O)NC(C2CC2)C2CC2)CC[C@H]1n1cc(C(N)=O)c(Nc2ccc(Cl)cc2)n1` (single isomer, unassigned) [Example 35-5, 3-[(4-chlorophenyl)amino]-1-{(1R,2R,4R or 1S,2S,4S)-2-cyano-4-[(dicyclopropylmethyl)carbamoyl]cyclohcxyl}-1H-pyrazole-4-carboxamide], the IC50 in assay [1] came out at 13 nM; in assay [2], 169 nM.

Consider `COC(=O)c1ncc(Nc2nn([C@H]3CCCC[C@@H]3C#N)cc2C(N)=O)cc1C` (single isomer, unassigned) [Example 17-78, methyl 5-({4-carbamoyl-1-[(1R,2R or 1S,2S)-2-cyanocyclohexyl]-1H-pyrazol-3-yl}amino)-3-methylpyridine-2-carboxylate], for which the figures for the half-inhibitory concentration (IC50) in assay [1] and in assay [2] were 6 nM and 17 nM, respectively.

For `N#C[C@H]1CC(N2CC[C@@H](F)C2)CC[C@@H]1n1cc(C(N)=O)c(Nc2ccc(S(=O)(=O)C(F)(F)F)cc2)n1` (single isomer, unassigned) [Example 28-159, 1-{(1S,2S or 1R,2R)-2-cyano-4-[(3R)-3-fluoropyrrolidin-1-yl]cyclohexyl}-3-({4-[(trifluoro-methyl)sulfonyl]phenyl}amino)-1H-pyrazole-4-carboxamide], the IC50 in assay [1] worked out at 2 nM; in assay [2], 18 nM.

Consider `N#C[C@@H]1CCCC[C@H]1n1cc(C(N)=O)c(Nc2ccc(C(F)F)nc2)n1` (single isomer, unassigned) [Example 17-55, 1-[(1R,2R or 1S,2S)-2-cyanocyclohexyl]-3-{[6-(difluoromethyl)pyridin-3-yl]amino}-1H-pyrazole-4-carboxamide], for which the half-maximal inhibitory concentration (IC50) was determined as 41 nM in assay [1] and 255 nM in assay [2].

On to `N#C[C@H]1C[C@@H](NC2(C(F)(F)F)CC2)CC[C@@H]1n1cc(C(N)=O)c(Nc2ccc(Cl)cc2)n1` (single isomer, unassigned) [Example 28-226, 3-[(4-chlorophenyl)amino]-1-[(1S,2S,4S or 1R,2R,4R)-2-cyano-4-{[1-(trifluoro-methyl)cyclopropyl]a-mino}cyclohexyl]-1H-pyrazole-4-carboxamide], for which the IC50 was found to be 5 nM in assay [1] and 36 nM in assay [2].

In the case of `CN(C)[C@@H]1CC[C@H](n2cc(C(N)=O)c(Nc3ccc(Cl)c(F)c3)n2)[C@@H](C#N)C1` (single isomer, unassigned) [Example 28-38, 3-[(4-chloro-3-fluorophenyl)amino]-1-[(1S,2S,4R or 1R,2R,4S)-2-cyano-4-(dimethylamino)cyclohexyl]-1H-pyrazole-4-carboxamide], the half-inhibitory concentration (IC50) was determined as 7 nM in assay [1] and 173 nM in assay [2].

The IC50 is the concentration that inhibits the measured activity by half.
